Reference: patent US5972639A, “Fluorescence-based assays for measuring cell proliferation” (Irori, priority 1997, dated 1999)
Where two headings read alike, the source gives them in different places.

Key:
[1] = system: HL-60 acid phosphatase; experiment: Km of substrate for acid phosphatase, HL-60; assay type: biochemical; details: HL-60 suspension, human promyelocytic leukemia; BBTP 1 mM, 1 h at RT
From the text: (§1) Km of substrate for acid phosphatase for a variety of cells

[2] = system: Alkaline phosphatase; details: reported in U.S. Pat. No. 5,424,440; read-out: Km of the substrate with alkaline phosphatase; cited from earlier work
[3] = system: T47-D acid phosphatase; experiment: Km of substrate for acid phosphatase, T47-D; assay type: biochemical; details: T47-D human breast carcinoma; BBTP 1.5 mM, 1 h at RT
From the text: as §1

[4] = system: K562 acid phosphatase; experiment: Km of substrate for acid phosphatase, K562; assay type: biochemical; details: K562 suspension, human chronic myelogenous leukemia; BBTP 1 mM, 1 h at RT
From the text: as §1

[5] = system: HDMEC intracellular acid phosphatase; experiment: acid phosphatase assay of HDMEC with AttoPhos/BBTP; assay type: biochemical, human; details: for Fluorescence: A/2 plate
Description: (§2) To establish a relation between acid phosphatase activity and cell numbers, cells were seeded at various densities (50-20,000) onto replicate plastic 96-well plates or half area 96-well microtiter plates (Costar) and incubated at 37° C. for 3.5 hours to allow attachment. Cell number was then assessed by measuring intracellular acid phosphatase with three different substrates: p-nitrophenyl phosphate, which has a calorimetric endpoint, 4-methylumbelliferyl phosphate (MUP) and 2'-[2-benzthiazoyl]-6'-hydoxybenzothiazole phosphate bis-[2-amino-2-methyl-13-propanediol] salt (AttoPhos™), which have fluorometric endpoints.
(§3) Plates were incubated for 1 hour at room temperature and the reaction was terminated with 50 μL of stop solution (240 mM diethanolamine, pH 10). Fluorescence was measured at excitation wavelength of 450 nm and emission wavelength of 580 nm using a fluorimeter (Cytofluor 4000, PerSeptive Biosystems). Nonenzymatic hydrolysis was determined in wells containing no cells and subtracted from the experimental values. Since the background is subtracted, in general, the actual signal to noise ratios at lower cell numbers is better than what presented in the table.

[6] = system: HUVEC intracellular acid phosphatase; assay type: biochemical, human
[7] = system: 2008 acid phosphatase; experiment: Km of substrate for acid phosphatase, 2008; assay type: biochemical; details: 2008 human ovarian carcinoma; BBTP 1 mM, 1 h at RT
From the text: as §1

[8] = system: acid phosphatases; experiment: Km of BBTP for acid phosphatases; assay type: biochemical; details: see EXAMPLES
From the text: as §1

[9] = system: Molt-4 acid phosphatase; experiment: Km of substrate for acid phosphatase, Molt-4; assay type: biochemical; details: Molt-4 suspension, human acute lymphoblastic leukemia; BBTP 1 mM, 1 h at RT
From the text: as §1

[10] = system: CHO-K1 acid phosphatase; experiment: acid phosphatase assay of CHO-K1 with AttoPhos/BBTP; assay type: biochemical, Chinese hamster; details: for Fluorescence: A/2 plate
Description: as §2, §3

[11] = system: 3T3 cells acid phosphatase; experiment: acid phosphatase assay of 3T3 cells with AttoPhos/BBTP; assay type: biochemical, mouse; details: for Fluorescence: 96-well plate, AttoPhos 500 μM
Description: as §2
as §3, with “After washing with D-PBS, 150 μL 0.5 mM AttoPhos™ in 0.1 M Tris-citrate (0.1 M Tris-base, 0.1 M citric acid, pH 6.5 containing 0.25% Triton X-100) was added to each well and placed on an orbital shaker for 5 minutes as described for MUP. Plates” for “Plates”

## O=P(O)(O)Oc1ccc2nc(-c3nc4ccccc4s3)sc2c1 [BBTP, 2'(2-benzothiazoyl)-6'-hydroxy-benzthiazole phosphate]
[1]
  Km: 108 µM
[2]
  Km: ~2000 µM
[3]
  Km: 261 µM
[4]
  Km: 82 µM
[5]; 50 HDMEC/well, AttoPhos 100 μM
  Fluorescence: 829 ± 26 RFU
[5]; 50 HDMEC/well, AttoPhos 250 μM
  Fluorescence: 1014 ± 80 RFU
[5]; 50 HDMEC/well, AttoPhos 500 μM
  Fluorescence: 1496 ± 4.6 RFU
[5]; 100 HDMEC/well, AttoPhos 100 μM
  Fluorescence: 1609 ± 157 RFU
[5]; 100 HDMEC/well, AttoPhos 250 μM
  Fluorescence: 1545 ± 253 RFU
[5]; 100 HDMEC/well, AttoPhos 500 μM
  Fluorescence: 2032 ± 97 RFU
[5]; 250 HDMEC/well, AttoPhos 100 μM
  Fluorescence: 2347 ± 209 RFU
[5]; 250 HDMEC/well, AttoPhos 250 μM
  Fluorescence: 2383 ± 24 RFU
[5]; 250 HDMEC/well, AttoPhos 500 μM
  Fluorescence: 3686 ± 270 RFU
[5]; 500 HDMEC/well, AttoPhos 100 μM
  Fluorescence: 3682 ± 263 RFU
[5]; 500 HDMEC/well, AttoPhos 250 μM
  Fluorescence: 3998 ± 313 RFU
[5]; 500 HDMEC/well, AttoPhos 500 μM
  Fluorescence: 6404 ± 665 RFU
[5]; 1,000 HDMEC/well, AttoPhos 100 μM
  Fluorescence: 6653 ± 483 RFU
[5]; 1,000 HDMEC/well, AttoPhos 250 μM
  Fluorescence: 7594 ± 411 RFU
[5]; 1,000 HDMEC/well, AttoPhos 500 μM
  Fluorescence: 9822 ± 930 RFU
[5]; 2,500 HDMEC/well, AttoPhos 100 μM
  Fluorescence: 15566 ± 167 RFU
[5]; 2,500 HDMEC/well, AttoPhos 250 μM
  Fluorescence: 13382 ± 310 RFU
[5]; 2,500 HDMEC/well, AttoPhos 500 μM
  Fluorescence: 20580 ± 436 RFU
[5]; 5,000 HDMEC/well, AttoPhos 100 μM
  Fluorescence: 28018 ± 817 RFU
[5]; 5,000 HDMEC/well, AttoPhos 250 μM
  Fluorescence: 25468 ± 843 RFU
[5]; 5,000 HDMEC/well, AttoPhos 500 μM
  Fluorescence: 34112 ± 1797 RFU
[5]; 10,000 HDMEC/well, AttoPhos 100 μM
  Fluorescence: 35787 ± 1325 RFU
[5]; 10,000 HDMEC/well, AttoPhos 250 μM
  Fluorescence: 40725 ± 1850 RFU
[5]; 10,000 HDMEC/well, AttoPhos 500 μM
  Fluorescence: 54430 ± 133 RFU
[5]; HDMEC, BBTP 1.5 mM, 1 h at RT, read-out: Km
  Km: 80 µM
[5]; human dermal microvascular endothelial cells, read-out: apparent Km
  Km: ~100 µM
[6]; 625 HUVEC/well, 96-well plate, AttoPhos 250 μM
  Fluorescence: 1695 ± 65 RFU
[6]; 625 HUVEC/well, 96-well plate, AttoPhos 500 μM
  Fluorescence: 1561 ± 39 RFU
[6]; 625 HUVEC/well, half area 96-well (A/2) plate, AttoPhos 250 μM
  Fluorescence: 1867 ± 68 RFU
[6]; 625 HUVEC/well, half area 96-well (A/2) plate, AttoPhos 500 μM
  Fluorescence: 2040 ± 55 RFU
[6]; 1,250 HUVEC/well, 96-well plate, AttoPhos 250 μM
  Fluorescence: 2853 ± 180 RFU
[6]; 1,250 HUVEC/well, 96-well plate, AttoPhos 500 μM
  Fluorescence: 2737 ± 106 RFU
[6]; 1,250 HUVEC/well, half area 96-well (A/2) plate, AttoPhos 250 μM
  Fluorescence: 3438 ± 132 RFU
[6]; 1,250 HUVEC/well, half area 96-well (A/2) plate, AttoPhos 500 μM
  Fluorescence: 3757 ± 132 RFU
[6]; 2,500 HUVEC/well, 96-well plate, AttoPhos 250 μM
  Fluorescence: 5019 ± 188 RFU
[6]; 2,500 HUVEC/well, 96-well plate, AttoPhos 500 μM
  Fluorescence: 5186 ± 125 RFU
[6]; 2,500 HUVEC/well, half area 96-well (A/2) plate, AttoPhos 250 μM
  Fluorescence: 6664 ± 128 RFU
[6]; 2,500 HUVEC/well, half area 96-well (A/2) plate, AttoPhos 500 μM
  Fluorescence: 7046 ± 240 RFU
[6]; 5,000 HUVEC/well, 96-well plate, AttoPhos 250 μM
  Fluorescence: 10578 ± 119 RFU
[6]; 5,000 HUVEC/well, 96-well plate, AttoPhos 500 μM
  Fluorescence: 10406 ± 498 RFU
[6]; 5,000 HUVEC/well, half area 96-well (A/2) plate, AttoPhos 250 μM
  Fluorescence: 12807 ± 399 RFU
[6]; 5,000 HUVEC/well, half area 96-well (A/2) plate, AttoPhos 500 μM
  Fluorescence: 14586 ± 498 RFU
[6]; 10,000 HUVEC/well, 96-well plate, AttoPhos 250 μM
  Fluorescence: 20670 ± 967 RFU
[6]; 10,000 HUVEC/well, 96-well plate, AttoPhos 500 μM
  Fluorescence: 21198 ± 240 RFU
[6]; 10,000 HUVEC/well, half area 96-well (A/2) plate, AttoPhos 250 μM
  Fluorescence: 25684 ± 1488 RFU
[6]; 10,000 HUVEC/well, half area 96-well (A/2) plate, AttoPhos 500 μM
  Fluorescence: 28302 ± 448 RFU
[6]; 20,000 HUVEC/well, 96-well plate, AttoPhos 250 μM
  Fluorescence: 37889 ± 501 RFU
[6]; 20,000 HUVEC/well, 96-well plate, AttoPhos 500 μM
  Fluorescence: 38528 ± 1540 RFU
[6]; 20,000 HUVEC/well, half area 96-well (A/2) plate, AttoPhos 250 μM
  Fluorescence: 46409 ± 1009 RFU
[6]; 20,000 HUVEC/well, half area 96-well (A/2) plate, AttoPhos 500 μM
  Fluorescence: 49706 ± 790 RFU
[6]; HUVEC, BBTP 0.5 mM, 1 h at RT
  Km: 88 µM
[7]
  Km: 106 µM
[8]
  Km: ~100 µM
[9]
  Km: 130 µM
[10]; 250 CHO-K1/well, AttoPhos 100 μM
  Fluorescence: 552 ± 26 RFU
[10]; 250 CHO-K1/well, AttoPhos 250 μM
  Fluorescence: 683 ± 36 RFU
[10]; 250 CHO-K1/well, AttoPhos 500 μM
  Fluorescence: 721 ± 90 RFU
[10]; 500 CHO-K1/well, AttoPhos 100 μM
  Fluorescence: 790 ± 70 RFU
[10]; 500 CHO-K1/well, AttoPhos 250 μM
  Fluorescence: 1008 ± 21 RFU
[10]; 500 CHO-K1/well, AttoPhos 500 μM
  Fluorescence: 1010 ± 126 RFU
[10]; 1,000 CHO-K1/well, AttoPhos 100 μM
  Fluorescence: 1031 ± 138 RFU
[10]; 1,000 CHO-K1/well, AttoPhos 250 μM
  Fluorescence: 1296 ± 64 RFU
[10]; 1,000 CHO-K1/well, AttoPhos 500 μM
  Fluorescence: 1400 ± 47 RFU
[10]; 2,000 CHO-K1/well, AttoPhos 100 μM
  Fluorescence: 2179 ± 156 RFU
[10]; 2,000 CHO-K1/well, AttoPhos 250 μM
  Fluorescence: 2628 ± 148 RFU
[10]; 2,000 CHO-K1/well, AttoPhos 500 μM
  Fluorescence: 2936 ± 382 RFU
[10]; 4,000 CHO-K1/well, AttoPhos 100 μM
  Fluorescence: 3905 ± 234 RFU
[10]; 4,000 CHO-K1/well, AttoPhos 250 μM
  Fluorescence: 4162 ± 122 RFU
[10]; 4,000 CHO-K1/well, AttoPhos 500 μM
  Fluorescence: 4832 ± 357 RFU
[10]; 8,000 CHO-K1/well, AttoPhos 100 μM
  Fluorescence: 7785 ± 684 RFU
[10]; 8,000 CHO-K1/well, AttoPhos 250 μM
  Fluorescence: 8356 ± 237 RFU
[10]; 8,000 CHO-K1/well, AttoPhos 500 μM
  Fluorescence: 9138 ± 440 RFU
[10]; 12,000 CHO-K1/well, AttoPhos 100 μM
  Fluorescence: 12481 ± 462 RFU
[10]; 12,000 CHO-K1/well, AttoPhos 250 μM
  Fluorescence: 12959 ± 124 RFU
[10]; 12,000 CHO-K1/well, AttoPhos 500 μM
  Fluorescence: 12198 ± 83 RFU
[10]; CHO-K1 Chinese hamster ovary, BBTP 0.5 mM, 1 h at RT
  Km: 172 µM
[11]; 250 3T3 cells/well
  Fluorescence: 1866 ± 100 RFU
[11]; 500 3T3 cells/well
  Fluorescence: 3194 ± 172 RFU
[11]; 1,000 3T3 cells/well
  Fluorescence: 6149 ± 176 RFU
[11]; 2,000 3T3 cells/well
  Fluorescence: 10115 ± 840 RFU
[11]; 4,000 3T3 cells/well
  Fluorescence: 21314 ± 1558 RFU
[11]; 8,000 3T3 cells/well
  Fluorescence: 44831 ± 1793 RFU
[11]; 10,000 3T3 cells/well
  Fluorescence: 49860 ± 556 RFU
[11]; NIH 3T3 mouse embryonic fibroblasts, BBTP 0.5 mM, 1, at RT
  Km: 87 µM
